US20040214784A1, “Permeable, water soluble, non-irritating prodrugs of chemotherapeutic agents with oxaalkanoic acids” (UNIVERSITY OF KENTUCKY RESEARCH FOUNDATION, priority 1999, published 2004)

What was measured:
[1] = Half-lives of hydrolysis of the prodrugs in human serum
[2] = Half-lives of hydrolysis of the prodrugs in phosphate buffer at pH 7.4
physchem = conditions: buffer, pH 7.4, Half-life of hydrolysis
[3] = pH 7.4, Half-life of hydrolysis, Buffer, phosphate buffer at ph 7.4
[4] = Half-life of hydrolysis, Serum (to mono), hydrolysis to mono
[5] = pH 7.4, Half-life of hydrolysis, Buffer (to mono), phosphate buffer at ph 7.4, hydrolysis to mono

| Compound | half-life ([1]; Half-life of hydrolysis, Serum) [h] | half-life [2, 3] [h] | further results |
| --- | --- | --- | --- |
| COCCOCCOCC(=O)Nc1ccn(C2CCC(COC(=O)COCCOCCOC)O2)c(=O)n1 (stereo not drawn) | 0.583 ± 0.0833 | 14 ± 1 | – |
| CC(C)(C)OC(=O)COCC(=O)OCC1CCC(n2ccc(N)nc2=O)O1 (stereo not drawn) | 0.0283 | 11 | – |
| COC(=O)COCC(=O)Oc1cc(/C=C\c2cc(OC)c(OC)c(OC)c2)ccc1OC | – | – | half-life [1]: 0.0417 h; half-life ([2]; pH 7.4): > 48 h |
| COc1ccc(/C=C\c2cc(OC)c(OC)c(OC)c2)cc1OC(=O)COCC(=O)O | – | – | half-life [1]: 0.0333 h; half-life ([2]; pH 7.4): 4 h |
| CC(C)(C)OC(=O)COCC(=O)Nc1ccn(C2CCC(COC(=O)COCC(=O)OC(C)(C)C)O2)c(=O)n1 (stereo not drawn) | 0.173 | 6.2 | – |
| COCCOCCOCC(=O)OCC(COC(=O)COCCOCCOC)OCn1cnc2c(=O)[nH]c(N)nc21 | 0.617 | 10 | – |
| Nc1nc2c(ncn2COCCOC(=O)COCC(=O)O)c(=O)[nH]1 | 25 | 40 | – |
| CC(C)(C)OC(=O)COCC(=O)OCCOCn1cnc2c(=O)[nH]c(N)nc21 | 0.045 | 16 | – |
| COCCOCCOCC(=O)OCn1cc(F)c(=O)n(COC(=O)COCCOCCOC)c1=O | – | – | half-life [1, 4]: 0.00833 h; half-life [2, 5]: 1.47 h |
| COc1ccc(/C=C\c2cc(OC)c(OC)c(OC)c2)cc1OC(=O)COCC(=O)OC(C)(C)C | 0.123 | 8.5 | – |
| CC[C@@]1(OC(=O)COCC(=O)OC)C(=O)OCc2c1cc1n(c2=O)Cc2cc3ccccc3nc2-1 | – | – | half-life [1]: 0.0333 h; half-life ([2]; pH 7.4): 6.1 h |
| COCCOCCOCC(=O)OCC(=O)[C@@]12OC(C)(C)O[C@@H]1CC1C3CCC4=CC(=O)C=CC4(C)[C@@]3(F)[C@@H](O)CC12C (stereo partly drawn) | – | – | half-life (physchem): 12 h |
| CC(C)OC(=O)COCC(=O)O[C@H](CN1CC[C@H]2CCCC[C@H]2[C@H]1C(=O)NC(C)(C)C)[C@H](Cc1ccccc1)NC(=O)[C@H](CC(N)=O)NC(=O)c1ccc2ccccc2n1 | 10 | 5 | – |
| CC(C)(C)OC(=O)COCC(=O)Nc1ccn(C2CCC(CO)O2)c(=O)n1 (stereo not drawn) | 5 | 16 | – |
| CN(C)CCOCCOC(=O)COCC(=O)OCC1CCC(n2cnc3c(=O)[nH]cnc32)O1 (stereo not drawn) | 0.05 | 3.5 | – |
| COCCOCC(=O)O[C@@H](C[C@H](Cc1ccccc1)NC(=O)[C@@H](NC(=O)N(C)Cc1csc(C(C)C)n1)C(C)C)[C@H](Cc1ccccc1)NC(=O)OCc1cncs1 | 24 | > 48 | – |
| CC(C)c1nc(CN(C)C(=O)N[C@H](C(=O)N[C@@H](Cc2ccccc2)C[C@H](OC(=O)COCCOCCO)[C@H](Cc2ccccc2)NC(=O)OCc2cncs2)C(C)C)cs1 | 24 | 96 | – |
| Nc1nc2c(ncn2COCCOC(=O)COCC(=O)OCCOCn2cnc3c(=O)[nH]c(N)nc32)c(=O)[nH]1 | – | – | half-life ([1]; Half-life of hydrolysis, Serum, bis to mono): 4 h; half-life ([2]; pH 7.4, Half-life of hydrolysis, Buffer, bis to mono, phosphate buffer at ph 7.4, bis to mono): 10 h |
| Nc1ccn(C2CCC(COC(=O)COCCOCCO)O2)c(=O)n1 (stereo not drawn) | 0.167 ± 0.0167 | 30 | – |
| COCCOCC(=O)OCCOCn1cnc2c(=O)[nH]c(N)nc21 | 0.0917 | 30 | – |

| Compound | half-life ([1]; Half-life of hydrolysis, Serum) [h] | half-life [2, 3] [h] | further results |
| --- | --- | --- | --- |
| COCCOCC(=O)OCC(=O)[C@@]12OC(C)(C)O[C@@H]1CC1C3CCC4=CC(=O)C=CC4(C)[C@@]3(F)[C@@H](O)CC12C (stereo partly drawn) | – | – | half-life (physchem): 15 h |
| COCCOCCOCC(=O)OCC(CO)OCn1cnc2c(=O)[nH]c(N)nc21 (stereo not drawn) | 0.2 | 26 | – |
| COCCOCC(=O)OCC1CCC(n2cnc3c(=O)[nH]cnc32)O1 (stereo not drawn) | 0.0367 | 40 | – |
| COCCOCCOCC(=O)OCn1cc(F)c(=O)[nH]c1=O | 0.15 | 3.73 | – |
| COCCOCC(=O)OCC1OC(n2cc(C)c(=O)[nH]c2=O)CC1N=[N+]=[N-] (stereo not drawn) | 0.06 ± 0.00167 | 13.3 ± 0.2 | – |
| COCCOCCOCC(=O)OCC1OC(n2cc(C)c(=O)[nH]c2=O)CC1N=[N+]=[N-] (stereo not drawn) | 0.4033 ± 0.00333 | 12.3 ± 0.1 | – |
| COCCOCCOCC(=O)OCCOCn1cnc2c(=O)[nH]c(N)nc21 | 0.0167 | 22 | – |
| COCCOCCOCC(=O)O[C@@H](C[C@H](Cc1ccccc1)NC(=O)[C@@H](NC(=O)N(C)Cc1csc(C(C)C)n1)C(C)C)[C@H](Cc1ccccc1)NC(=O)OCc1cncs1 | > 48 | > 96 | – |
| CC(C)c1nc(CN(C)C(=O)N[C@H](C(=O)N[C@@H](Cc2ccccc2)C[C@H](OC(=O)COCC(=O)O)[C@H](Cc2ccccc2)NC(=O)OCc2cncs2)C(C)C)cs1 | 40 | > 240 | – |
| COCCOCCOCC(=O)OCn1c(=O)[nH]cc(F)c1=O | 0.0167 | 7.28 | – |
| CC(C)OC(=O)COCC(=O)Nc1ccn(C2CCC(CO)O2)c(=O)n1 (stereo not drawn) | 3.4 | 18 | – |
| O=C(COCCOCCO)OCC1CCC(n2cnc3c(=O)[nH]cnc32)O1 (stereo not drawn) | 0.0917 ± 0.00833 | 46 | – |
| CC(C)OC(=O)COCC(=O)OCC1CCC(n2cnc3c(=O)[nH]cnc32)O1 (stereo not drawn) | 0.0833 | 10 | – |
| O=C(O)COCC(=O)OCC1CCC(n2cnc3c(=O)[nH]cnc32)O1 (stereo not drawn) | 0.0667 ± 0.00833 | 9.4 ± 0.1 | – |
| Cc1cn(C2CC(N=[N+]=[N-])C(COC(=O)COCCOCCO)O2)c(=O)[nH]c1=O (stereo not drawn) | 0.333 ± 0.0167 | 21 | – |
| CC(C)(C)NC(=O)[C@@H]1[C@@H]2CCCC[C@@H]2CCN1C[C@@H](OC(=O)COCCOCCO)[C@H](Cc1ccccc1)NC(=O)[C@H](CC(N)=O)NC(=O)c1ccc2ccccc2n1 | 6 ± 0.5 | 3.1 ± 0.1 | – |
| COC(=O)COCC(=O)O[C@@H](C[C@H](Cc1ccccc1)NC(=O)[C@@H](NC(=O)N(C)Cc1csc(C(C)C)n1)C(C)C)[C@H](Cc1ccccc1)NC(=O)OCc1cncs1 | 2.4 | 5.5 | – |
| CC1(C)O[C@@H]2CC3C4CCC5=CC(=O)C=CC5(C)[C@@]4(F)[C@@H](O)CC3(C)[C@]2(C(=O)COC(=O)COCC(=O)O)O1 (stereo partly drawn) | – | – | half-life (physchem): 1 h |
| CN(C)CCOC(=O)COCC(=O)O[C@H](CN1CC[C@H]2CCCC[C@H]2[C@H]1C(=O)NC(C)(C)C)[C@H](Cc1ccccc1)NC(=O)[C@H](CC(N)=O)NC(=O)c1ccc2ccccc2n1 | 35 | 10 | – |
| CC(C)c1nc(CN(C)C(=O)N[C@H](C(=O)N[C@@H](Cc2ccccc2)C[C@H](OC(=O)COCC(=O)OCCOCCN(C)C)[C@H](Cc2ccccc2)NC(=O)OCc2cncs2)C(C)C)cs1 | 1 | 2.2 | – |

| Compound | half-life ([1]; Half-life of hydrolysis, Serum) [h] | half-life [2, 3] [h] | further results |
| --- | --- | --- | --- |
| CN(C)CCOCCOC(=O)COCC(=O)O[C@H](CN1CC[C@H]2CCCC[C@H]2[C@H]1C(=O)NC(C)(C)C)[C@H](Cc1ccccc1)NC(=O)[C@H](CC(N)=O)NC(=O)c1ccc2ccccc2n1 | 25 | 7 | – |
| COCCOCCOCC(=O)OCC1CCC(n2ccc(N)nc2=O)O1 (stereo not drawn) | 0.075 | 24 | – |
| COCCOCC(=O)OCn1cc(F)c(=O)n(COC(=O)COCCOC)c1=O | – | – | half-life [1, 4]: 0.00333 h; half-life [2, 5]: 1.47 h |
| COC(=O)COCC(=O)O[C@H](CN1CC[C@H]2CCCC[C@H]2[C@H]1C(=O)NC(C)(C)C)[C@H](Cc1ccccc1)NC(=O)[C@H](CC(N)=O)NC(=O)c1ccc2ccccc2n1 | 4.5 | 2.5 | – |
| COC(=O)COCC(=O)OCC1CCC(n2ccc(N)nc2=O)O1 (stereo not drawn) | 0.1 ± 0.00333 | 10 ± 0.5 | – |
| COCCOCC(=O)OCn1c(=O)[nH]cc(F)c1=O | 0.00833 | 9.1 | – |
| CC[C@@]1(OC(=O)COCCOCCO)C(=O)OCc2c1cc1n(c2=O)Cc2cc3ccccc3nc2-1 | – | – | half-life [1]: 1.9 h; half-life ([2]; pH 7.4): 30 h |
| CC(C)OC(=O)COCC(=O)OCC1CCC(n2ccc(N)nc2=O)O1 (stereo not drawn) | 0.0217 | 8.2 | – |
| CC[C@@]1(OC(=O)COCC(=O)OCCOCCN(C)C)C(=O)OCc2c1cc1n(c2=O)Cc2cc3ccccc3nc2-1 | – | – | half-life [1]: 0.667 h; half-life ([2]; pH 7.4): 3 h |
| COCCOCC(=O)O[C@H](CN1CC[C@H]2CCCC[C@H]2[C@H]1C(=O)NC(C)(C)C)[C@H](Cc1ccccc1)NC(=O)[C@H](CC(N)=O)NC(=O)c1ccc2ccccc2n1 | 16 ± 1 | 3.2 ± 0.5 | – |
| COCCOCCOCC(=O)Oc1cc(/C=C\c2cc(OC)c(OC)c(OC)c2)ccc1OC | – | – | half-life [1]: 0.0333 h; half-life ([2]; pH 7.4): 10 h |
| CC(C)OC(=O)COCC(=O)Nc1ccn(C2CCC(COC(=O)COCC(=O)OC(C)C)O2)c(=O)n1 (stereo not drawn) | 0.162 | 5.6 | – |
| CC[C@@]1(OC(=O)COCC(=O)OCCN(C)C)C(=O)OCc2c1cc1n(c2=O)Cc2cc3ccccc3nc2-1 | – | – | half-life [1]: < 0.0167 h; half-life ([2]; pH 7.4): 0.0833 h |
| O=C(COCCOCCO)Nc1ccn(C2CCC(COC(=O)COCCOCCO)O2)c(=O)n1 (stereo not drawn) | – | – | half-life [1, 4]: 0.0833 ± 0.0167 h; half-life [2, 5]: 20 h |
| COCCOCC(=O)OCn1cc(F)c(=O)[nH]c1=O | 0.1 | 1.47 | – |
| CC[C@@]1(OC(=O)COCCOC)C(=O)OCc2c1cc1n(c2=O)Cc2cc3ccccc3nc2-1 | 2 | 26 | – |
| CC[C@@]1(OC(=O)COCCOCCOC)C(=O)OCc2c1cc1n(c2=O)Cc2cc3ccccc3nc2-1 | – | – | half-life [1]: 2 h; half-life ([2]; pH 7.4): 25 h |
| COCCOCCOCC(=O)O[C@H](CN1CC[C@H]2CCCC[C@H]2[C@H]1C(=O)NC(C)(C)C)[C@H](Cc1ccccc1)NC(=O)[C@H](CC(N)=O)NC(=O)c1ccc2ccccc2n1 | 10 ± 1 | 3.5 ± 0.2 | – |
| CC(C)(C)NC(=O)[C@@H]1[C@@H]2CCCC[C@@H]2CCN1C[C@@H](OC(=O)COCC(=O)OC(C)(C)C)[C@H](Cc1ccccc1)NC(=O)[C@H](CC(N)=O)NC(=O)c1ccc2ccccc2n1 | 20 | 10 | – |
| COCCOCCOCC(=O)OCC1CCC(n2cnc3c(=O)[nH]cnc32)O1 (stereo not drawn) | 0.02 | 30 | – |
